Experimental data from paper PMC7571145, “Multistep Synthesis and In Vitro Anticancer Evaluation of 2-Pyrazolyl-Estradiol Derivatives, Pyrazolocoumarin-Estradiol Hybrids and Analogous Compounds” (Molecules, 2020).

Legend:
DU145 cells = experiment: MTT cytotoxicity assay on DU145 prostate cancer cells; type: cell-based; details: for primary growth inhibitory screen, cell viability, DU145: 2.5 µM, 72 h, mean±SD, untreated control about 100; for IC50: Homo sapiens, DU-145, 72 h, compounds 1-7 µM, mean ± SD, read-out: IC50 on DU145
Procedure: (§1) Cytotoxicity screens were performed to assess the in vitro anticancer activity of the synthesized A-ring-linked 2-pyrazoles of estradiol, the pyrazolocoumarin-estradiol hybrids, and their structurally simplified non-steroidal analogs on various cancerous cell lines such as MCF-7, PC-3, DU145, and HeLa and on non-cancerous MRC-5 fibroblasts. The 2-acetyl-phenol starting materials (4, 5, and 15) were also included for comparison. All compounds were applied in 2.5 µM concentration for 72 h. The obtained cell viability data were used to construct a heat map (Figure 2) in order to select compounds that exert cancer cell line-specific cytotoxicity. […] Furthermore, some compounds discriminated only DU145 cells and could eliminate these type of prostate cancer cells.
(§2) To understand structure-function relationships, we also included the structural analogs of the selected compounds, namely 7a (C-17 acetate of 8a), 8c (C-17 OH counterpart of 7c), and 9a (steroidal pair of 19a) into subsequent analyses. […] For this, compounds were applied on MCF-7, PC-3, DU145, and HeLa and on non-cancerous MRC-5 fibroblasts in various concentrations for 72 h or were treated with cisplatin at different concentrations. On the viability data, dose–response curves were fitted (Figure S1) and IC50 values were calculated accordingly (Table 3). In agreement with the primary cytotoxicity screen (Table S1), the obtained IC50 concentrations clearly indicated which compound was selectively effective on one or more cancer cell lines. […] Typically, acetylated steroidal pyrazoles were less favorable than deacetylated counterparts due to reduced cancer cell selectivity (7c, 10a).
(§3) To evaluate the in vitro pharmacological effects of the synthesized molecules, each compound was first dissolved in cell culture grade DMSO (Sigma) to a final concentration of 10 mM. Using MTT colorimetric assay, the cytotoxicity of these compounds was evaluated on cancerous (MCF-7, HeLa, DU145, PC-3) and non-cancerous (MRC-5) cell lines. Briefly, 5000 cells/well of each cell line were seeded in 96-well plates and were left to grow overnight in a 5% CO2 atmosphere at 37 °C. On the next day, cells were treated with each derivative separately, in case of the primary screen, or only with the selected compounds upon IC50 determination. Cells were incubated with the test compounds for 72 h in a 5% CO2 atmosphere at 37 °C. End point was measured by incubating cells for 1 h with 0.5 mg/mL of MTT reagent (Serva) dissolved in serum free culture medium. The formazan crystals formed by metabolically active cells were later dissolved in DMSO. Optical density of the obtained solutions was measured at 570 nm using a Synergy HTX plate reader. […] The analysis and conclusions were made based on three independent experiments. Normalized data were analyzed and the heat map was constructed using GraphPad Prism 7 software.

MCF-7 cells = experiment: MTT cytotoxicity assay on MCF-7 cells; type: cell-based; details: for primary growth inhibitory screen, cell viability, MCF-7: 2.5 µM, 72 h, mean±SD, untreated control about 100; for IC50: Homo sapiens, MCF7, 72 h, compounds 1-7 µM, mean ± SD, read-out: IC50 on MCF-7
Procedure: as §1, §2, §3

HeLa cells = experiment: MTT cytotoxicity assay on HeLa cells; type: cell-based; details: 72 h; for primary growth inhibitory screen, cell viability, HeLa: 2.5 µM, mean±SD, untreated control about 100; for IC50: Homo sapiens, HeLa, compounds 1-7 µM, mean ± SD, read-out: IC50 on HeLa
Procedure: as §1, §2, §3

MRC-5 fibroblasts = experiment: MTT cytotoxicity assay on non-cancerous MRC-5 fibroblasts; type: cell-based; details: 72 h; for primary growth inhibitory screen, cell viability, MRC-5 / IC50: MTT; for primary growth inhibitory screen, cell viability, MRC-5: mean±SD, untreated control about 100; for IC50: Homo sapiens, MRC5, compounds 1-7 µM, mean ± SD, read-out: IC50 on MRC-5
Procedure: as §1, §2, §3

PC-3 cells = experiment: MTT cytotoxicity assay on PC-3 prostate cancer cells; type: cell-based; details: for primary growth inhibitory screen, cell viability, PC-3: 2.5 µM, 72 h, mean±SD, untreated control about 100; for IC50: Homo sapiens, PC-3, 72 h, compounds 1-7 µM, mean ± SD, read-out: IC50 on PC-3
Procedure: as §1, §2, §3

SMILES | melting point | primary growth inhibitory screen, cell viability, DU145 (DU145 cells) | IC50 (DU145 cells) [µM] | primary growth inhibitory screen, cell viability, MCF-7 (MCF-7 cells) | IC50 (MCF-7 cells) [µM] | primary growth inhibitory screen, cell viability, HeLa (HeLa cells) | IC50 (HeLa cells) [µM] | primary growth inhibitory screen, cell viability, MRC-5 (MRC-5 fibroblasts; 2.5 µM) | IC50 (MRC-5 fibroblasts) [µM] | primary growth inhibitory screen, cell viability, PC-3 (PC-3 cells) | IC50 (PC-3 cells) [µM] | effect on non-cancerous fibroblasts (MRC-5 fibroblasts; 2.5 µM, based on the heat map)
CC(=O)O[C@H]1CC[C@H]2[C@@H]3CCc4cc(O)c(-c5nn(-c6ccccc6)cc5C=O)cc4[C@H]3CC[C@]12C [Compound 7a, 2-(4′-Formyl-1′-phenyl-1′H-pyrazol-3′-yl)-estra-1,3,5(10)-triene-3,17β-diol-17-acetate] | 230 to 232 °C | 108.7±9.1 | 6.93 ± 1 | 98.6±5.2 | 4.49 ± 1 | 102.7±2.7 | 4.18 ± 1 | ≥ 100±5.7 | 5.9 ± 1 | 87.8±7.1 | 3.63 ± 1 | –
CC(=O)O[C@H]1CC[C@H]2[C@@H]3CCc4cc5oc(=O)c6cn(-c7ccc(C)cc7)nc6c5cc4[C@H]3CC[C@]12C [Compound 9b] | 264 to 266 °C | ≥ 100±4.5 | – | ≥ 100±0.8 | – | 68.0±0.4 | – | ≥ 100±4.2 | – | 86.2±2.4 | – | –
CC(=O)O[C@H]1CC[C@H]2[C@@H]3CCc4cc5oc(=O)c6cn(-c7ccccc7)nc6c5cc4[C@H]3CC[C@]12C [Compound 9a] | 198 to 200 °C | ≥ 100±5.8 | 5.66 ± 1 | ≥ 100±2.4 | 4.94 ± 1 | 73.8±0.6 | 1.55 ± 1 | ≥ 100±8.1 | 6.41 ± 1.1 | 82.0±2.2 | 4.22 ± 1 | –
C[C@]12CC[C@@H]3c4cc(-c5nn(-c6ccc(Cl)cc6)cc5CO)c(O)cc4CC[C@H]3[C@@H]1CC[C@@H]2O [Compound 11c] | 240 to 242 °C | 127.1±4.9 | – | ≥ 100±0.7 | – | 77.9±1.5 | – | ≥ 100±8.4 | – | 87.1±3.8 | – | –
Cc1ccc(-n2cc(C=O)c(-c3cc4c(cc3O)CC[C@@H]3[C@@H]4CC[C@]4(C)[C@@H](O)CC[C@@H]34)n2)cc1 [Compound 8b, 2-(4′-Formyl-1′-(4″-tolyl)-1′H-pyrazol-3′-yl)-estra-1,3,5(10)-trien-3,17β-diol] | > 190 °C (dec.) | ≥ 100±10.2 | – | ≥ 100±8.2 | – | 92.2±8.5 | – | ≥ 100±2.4 | – | 67.8±3.8 | – | –
Cc1ccc(-n2cc(C=O)c(-c3cc4c(cc3O)CCCC4)n2)cc1 [Compound 17b, 3′-(3-Hydroxy-5,6,7,8-tetrahydronaphthalen-2-yl)-1′-(4″-tolyl)-1′H-pyrazole-4′-carbaldehyde] | 151 to 153 °C | ≥ 100±16.8 | – | 93.2±6.0 | – | ≥ 100±3.9 | – | ≥ 100±14.5 | – | ≥ 100±3.0 | – | –
CC(=O)O[C@H]1CC[C@H]2[C@@H]3CCc4cc(O)c(-c5nn(-c6ccc(Cl)cc6)cc5C=O)cc4[C@H]3CC[C@]12C [Compound 7c, 2-(1′-(4″-Chlorophenyl)-4′-formyl-1′H-pyrazol-3′-yl)-estra-1,3,5(10)-triene-3,17β-diol-17-acetate] | 268 to 270 °C | 70.4±3.6 | 3.37 ± 1 | 57.4±10.6 | 1.99 ± 1.1 | 94.1±1.9 | 5.32 ± 1.1 | 78.9±4.3 | 4.76 ± 1.1 | 36.0±4.5 | 2.14 ± 1.1 | no or very mild effect
